For this test, the system named is LPS-induced release of endogenous TNFα from human peripheral blood mononuclear cells (PBMCs). Description: Example 13: ELISA-based TNFα release assay, LPS-induced, PBMCs from healthy donor. Format: cell-based. The note with it: 10 μM final concentration, LPS 50 ng/ml, delta Buffer stimulated vs unstimulated = 100% inhibition; for inhibition at 10 µM: Homo sapiens, PBMC. On the procedure:
In the following study, ELISA-based TNFα release assay was performed to verify the inhibitory effects of Compounds 1, 2, 3, 4, 5, and 7 on LPS-induced release of endogenous TNFα from primary human material obtained from healthy donor using peripheral blood mononuclear cells (PBMCs). The ELISA-based TNFα release assay that was used in this example is described below.
In brief, on day 1, Nunc black MaxiSorp® 96-well plates (Thermo Fisher Scientific, USA) were coated overnight with 100 μl per well of mouse anti-human TNFα capture antibody (provided as part of the DuoSet ELISA kit) at 4 μg/ml TBS at 4° C. On day 2, the capture antibody solution was removed and MaxiSorp® plates were blocked with 300 μl per well of TBS, 1% BSA at room temperature for 3 hours. Meanwhile, 20,000 PBMCs from healthy donor (SciRhom GmbH, Germany) in 80 μl of normal growth medium were seeded in each well of Greiner CELLSTAR V-bottom 96-well plates (Thermo Fisher Scientific, USA) and pre-incubated with 20 μl per well of standard growth medium supplemented with Batimastat (BB94, Abcam, UK) at 50 μM as positive control (for a final concentration of 10 μM in the resulting 100 μl sample volume), compounds of the invention at 50 μM (for a final concentration of 10 μM in the resulting 100 μl sample volume) and in case of Buffer stimulated and unstimulated controls with DMSO (Carl Roth, Germany) at 50 μM (for a final concentration of 10 μM in the resulting 100 μl sample volume) at 37° C., 5% CO2 for 30 minutes. Subsequently, cells (except those for unstimulated controls) were stimulated with 20 μl per well of LPS (Sigma-Aldrich, USA) at 300 ng/ml growth medium for a final concentration of 50 ng/ml at 37° C., 5% CO2 for 2 hours. Afterwards, the 96-well plates were centrifuged to pellet cells. In parallel, blocking buffer was removed from the MaxiSorp® plates and plates were washed 4 times with 350 μl per well of TBS-T (Carl Roth, Germany) on a 96-head plate washer (Tecan Group, Switzerland). To avoid drying-up, 30 μl of TBS were added to each well of the MaxiSorp® plates immediately, followed by the transfer of 70 μl of cell-free supernatant per sample. Additionally, 100 μl of recombinant human TNFα protein (provided as part of the DuoSet ELISA kit) diluted in TBS at defined concentrations were added to the plate as standard references. Thereafter, 100 μl per well of biotinylated goat anti-human TNFα detection antibody (provided as part of the DuoSet ELISA kit) at 50 ng/ml TBS were added and, protected from direct light, plates were incubated at room temperature for 2 hours. After 4 times washing with 350 μl per well of TBS-T (Carl Roth, Germany) on a 96-head plate washer (Tecan Group, Switzerland) and careful removal of all buffer traces after the fourth cycle, 100 μl of streptavidin-AP (R&D Systems, USA) diluted 1:10,000 in TBS were added to each well and, again protected from direct light, plates were incubated at room temperature for 30 minutes. Following another round of 4 times washing with 350 μl per well of TBS-T (Carl Roth, Germany) on a 96-head plate washer (Tecan Group, Switzerland) and careful removal of all buffer traces after the fourth cycle, 100 μl of AttoPhos substrate solution (Promega, USA) was added for incubation in the dark at room temperature for 1 hour. Using an infinite M1000 PRO (Tecan Group, Switzerland) microplate reader, the fluorescence of each well was collected at an excitation wavelength of 435 nm and an emission wavelength of 555 nm.
The delta between Buffer stimulated and Buffer unstimulated was defined 100% inhibition.
A general note: In an ELISA, binding on a coated surface is turned into a signal by an enzyme label.

The text below walks through data of patent US20260242359A1, “IRHOM2 INHIBITORS AND USES THEREOF” (NEW YORK SOCIETY FOR THE RELIEF OF THE RUPTURED AND …, priority 2023, published 2026).

Consider `CNC(=O)[C@H](Cc1ccccc1)NC(=O)[C@H](CC(C)C)[C@H](CSc1cccs1)C(=O)NO` [Batimastat, reference compound], for which, where the note is “2 hours”, the “inhibition of LPS-induced release of TNFα from human PBMCs” value was determined as 114.9%. Moreover, for the setting “2 h”, the inhibition at 10 µM is 99.5%. For the compound `CCC(=O)NCCc1c(/C=C2/C(=O)NC(=O)N(c3ccc(C)cc3C)C2=O)[nH]c2ccccc12` [Compound 1], at 10 µM the inhibition (2 hours) was 99.5%. Regarding `CCOC(=O)c1ccc(Nc2nc3nonc3n3nnnc23)cc1` [Compound 2], the inhibition at 10 µM (2 h) is 98.6%. The same measure, in the same setting: for `O=C(c1c(Cl)cccc1Cl)N1CCC(Cc2ccc(F)cc2)CC1` [Compound 3] the value was 76.3%. The same measure, in the same setting: for `Cc1c(C(=O)NCc2cccs2)sc(=O)n1Cc1ccccc1` [Compound 4] the value was 42%; for `Cc1c(C(=O)NCc2cccs2)sc(=O)n1Cc1ccccc1F` [Compound 5], 51.3%. On the same count and under the same terms, for `Cc1c(C(=O)NCc2ccco2)sc(=O)n1Cc1ccccc1F` [Compound 7] the value was 72.5%.

For orientation: inhibition means how much of the control response was suppressed. A higher inhibition goes with a response far below the control.
